Assay results published in patent US20140066438A1, “DOPAMINE RECEPTOR D2 ANTAGONIST FOR PREVENTION AND TREATMENT OF FLAVIVIRUS INFECTION” (Academia Sinica, priority 2012, published 2014).

Assays:
DENV-2 [1] = assay: Virus entry assay (confocal microscopy, plaque-forming assay of internalized virus); assay type: cell-based, Dengue virus serotype 2
Description: Solvent control or PCZ (15 and 20 μM) was added 15 min before the end of virus adsorption. After a washing with PBS, cells were then shifted to 37° C. for an additional 1 h incubation. Live-cell staining was performed before cell fixation to label the cell membrane with CellMask (red) and nuclei with Hoechst (blue). […] (B) Plaque-forming assay of internalized DENV-2. […] After a washing with PBS, cells were shifted to 37° C. for an additional 1 h. Cells were physically destroyed to release the internalized DENV-2 and internalized virus was quantified by plaque-forming assays.
At 15 min before the end of virus adsorption, PCZ was added to the cell cultures. Cells were gently washed once with cold PBS, then were shifted to a 37° C. CO2 incubator for an additional 1 h to allow virus entry with or without PCZ. […] Cells were washed 3 times with cold washing buffer and once with cold PBS, then were fixed with 4% PFA for 10 min on ice. […] Level of virus titers was determined by plaque-forming assay.

DENV-2 [2] = assay: D2R dependence of PCZ inhibition of DENV-2 binding in N18, shLacZ-N18 and shD2R-N18 cells (NS3 Western blot); assay type: cell-based, Dengue virus serotype 2
Description: The lentivirus vector pLKO.1 carrying a short hairpin RNA (shRNA) targeting the mouse dopamine D2 receptor (5′-[…]-3′, SEQ ID NO: 1) or LacZ (5′-[…]-3′, SEQ ID NO: 2) from the Taiwan National RNAi Core Facility was cotransfected with pMD.G and pCMVΔR8.91 into HEK293T cells by use of Lipofectamine 2000 (INVITROGEN™). The lentiviruses were harvested from culture supernatants and concentrated by ultracentrifugation at 35,000 rpm in a Beckman SW41 rotor for 3.5 h at 4° C. The viral pellets were resuspended and used to transduce N18 cells. The D2R-deficient N18 cells (shD2R-N18) and LacZ-control cells (shLacZ-N18) were selected with puromycin (5 μg/ml).

## CN1CCN(CCCN2c3ccccc3Sc3ccc(Cl)cc32)CC1 [PCZ, prochlorperazine]
DENV-2 [1]; BHK-21 cells, MOI=5
  levels of DENV-2 internalization quantified by plaque forming assay: significantly reduced
DENV-2 [1]; HEK293T, PCZ 15 and 20 μM, 1 h at 37° C.
  amounts of DENV-2 in the intracellular compartment (confocal microscopy): greatly reduced
DENV-2 [2]; N18 cells
  antiviral effect of PCZ given during binding (NS3): noted
DENV-2 [2]; shD2R-N18 cells (D2R-deficient)
  antiviral effect of PCZ given during binding (NS3): not
DENV-2 [2]; shLacZ-N18 cells (control knockdown)
  antiviral effect of PCZ given during binding (NS3): noted
